According to patent US8507411B2, “Neoglycorandomization and digitoxin analogs” (priority 2004, dated 2013):
pIC50: −log10 of the molar value. Where two headings read alike, the source gives them in different places.

Columns and labels:
A549 = experiment: High-throughput calcein AM cytotoxicity assay, A549; format: cell-based, human; settings: A549 cells
From the text: (§1) Standard errors are depicted with error bars.

Hep3B = experiment: High-throughput calcein AM cytotoxicity assay, Hep3B; format: cell-based, human; settings: Hep 3B cells
From the text: as §1

SF-268 = experiment: cells; format: cell-based, human; settings: SF-268 cells
Method in brief: (§2)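 Cells were attached for 1 h, then exposed to five 2-fold dilutions of compound for 72 h. Viability is read as calcein AM conversion to fluorescent calcein (ex 485/em 535 nm). IC50 comes from a four-parameter logistic fit of ≥6 dose-response replicates; NmuMG was grown in DMEM with insulin, the others in RPMI/10% FBS.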

NCI/ADR-RES = experiment: cells; format: cell-based, human; settings: NCI/ADR-RES cells
Method in brief: as §2

SK-OV-3 = experiment: cells; format: cell-based, human; settings: SK-OV-3 cells
Method in brief: as §2

HCT-116 = experiment: High-throughput calcein AM cytotoxicity assay, HCT-116; format: cell-based, human; settings: HCT-116 cells
From the text: as §1

NmuMG = experiment: cells; format: cell-based, mouse
Method in brief: as §2

Du145 = experiment: High-throughput calcein AM cytotoxicity assay, Du145; format: cell-based, human; settings: Du145 cells
From the text: as §1

MCF7 = experiment: High-throughput calcein AM cytotoxicity assay, MCF7; format: cell-based, human; settings: MCF7 cells
From the text: as §1

NCI-H460 = experiment: High-throughput calcein AM cytotoxicity assay, NCI-H460; format: cell-based, human; settings: NCI-H460 cells
From the text: as §1

[1] = NmuMG mouse mammary normal epithelial control line, read-out: IC50, NmuMG
[2] = NmuMG cells (mouse mammary normal epithelial control line), read-out: IC50

CON([C@H]1CC[C@@]2(C)[C@H](CC[C@@H]3[C@@H]2CC[C@]2(C)[C@@H](C4=CC(=O)OC4)CC[C@]32O)C1)[C@@H]1OC[C@@H](O)[C@@H](O)[C@H]1O [6β, D-riboside]
pIC50 (A549; read-out: IC50, A549): 5.99
pIC50 (Hep3B; read-out: IC50, Hep 3B): 6.05
pIC50 (SF-268; read-out: IC50, SF-268): 5.74
pIC50 (NCI/ADR-RES; read-out: IC50, NCI/ADR-RES): 6.18
pIC50 (SK-OV-3; read-out: IC50, SK-OV-3): 5.77
pIC50 (HCT-116; read-out: IC50, HCT-116): 5.89
pIC50 (NmuMG; [1]): 6.32
pIC50 (Du145; read-out: IC50, Du145): 6.14
pIC50 (MCF7; read-out: IC50, MCF7): 5.52
pIC50 (NCI-H460; read-out: IC50, NCI-H460): 6.05

CON([C@H]1CC[C@@]2(C)[C@H](CC[C@@H]3[C@@H]2CC[C@]2(C)[C@@H](C4=CC(=O)OC4)CC[C@]32O)C1)[C@@H]1O[C@H](C)[C@H](O)[C@H](O)[C@H]1O [8β, D-fucoside]
pIC50 (A549; read-out: IC50, A549): 5.74
pIC50 (Hep3B; read-out: IC50, Hep 3B): 5.31
pIC50 (SF-268; read-out: IC50, SF-268): 5.00
pIC50 (NCI/ADR-RES; read-out: IC50, NCI/ADR-RES): 5.82
pIC50 (SK-OV-3; read-out: IC50, SK-OV-3): 5.30
pIC50 (HCT-116; read-out: IC50, HCT-116): 5.15
pIC50 (NmuMG; [1]): < 4.60
pIC50 (Du145; read-out: IC50, Du145): 5.41
pIC50 (MCF7; read-out: IC50, MCF7): 4.96
pIC50 (NCI-H460; read-out: IC50, NCI-H460): 5.89

CON(C1CCC2(C)C(CCC3C2CCC2(C)C(C4=CC(=O)OC4)CCC32O)C1)C1OCC(O)C(O)C1O [5α, L-riboside]
pIC50 (A549; read-out: IC50, A549): < 4.60
pIC50 (Hep3B; read-out: IC50, Hep 3B): < 4.60
pIC50 (SF-268; read-out: IC50, SF-268): < 4.60
pIC50 (NCI/ADR-RES; read-out: IC50, NCI/ADR-RES): < 4.60
pIC50 (SK-OV-3; read-out: IC50, SK-OV-3): < 4.60
pIC50 (HCT-116; read-out: IC50, HCT-116): < 4.60
pIC50 (NmuMG; [1]): < 4.60
pIC50 (Du145; read-out: IC50, Du145): < 4.60
pIC50 (MCF7; read-out: IC50, MCF7): < 4.60
pIC50 (NCI-H460; read-out: IC50, NCI-H460): < 4.60

CON([C@H]1CC[C@@]2(C)[C@H](CC[C@@H]3[C@@H]2CC[C@]2(C)[C@@H](C4=CC(=O)OC4)CC[C@]32O)C1)[C@H]1O[C@@H](CO)[C@@H](O)[C@@H](O)[C@@H]1O [21β, L-galactoside]
pIC50 (A549; read-out: IC50, A549): 6.05
pIC50 (Hep3B; read-out: IC50, Hep 3B): 5.89
pIC50 (SF-268; read-out: IC50, SF-268): 5.85
pIC50 (NCI/ADR-RES; read-out: IC50, NCI/ADR-RES): 5.80
pIC50 (SK-OV-3; read-out: IC50, SK-OV-3): 5.80
pIC50 (HCT-116; read-out: IC50, HCT-116): 5.68
pIC50 (NmuMG; [1]): 6.00
pIC50 (Du145; read-out: IC50, Du145): 5.68
pIC50 (MCF7; read-out: IC50, MCF7): 5.74
pIC50 (NCI-H460; read-out: IC50, NCI-H460): 5.59

CON([C@H]1CC[C@@]2(C)[C@H](CC[C@@H]3[C@@H]2CC[C@]2(C)[C@@H](C4=CC(=O)OC4)CC[C@]32O)C1)[C@@H]1O[C@H](CO)[C@@H](O)[C@@H](O)[C@H]1O [18β, D-alloside]
pIC50 (A549; read-out: IC50, A549): 5.70
pIC50 (Hep3B; read-out: IC50, Hep 3B): 5.48
pIC50 (SF-268; read-out: IC50, SF-268): 5.46
pIC50 (NCI/ADR-RES; read-out: IC50, NCI/ADR-RES): 6.10
pIC50 (SK-OV-3; read-out: IC50, SK-OV-3): 5.19
pIC50 (HCT-116; read-out: IC50, HCT-116): 5.22
pIC50 (NmuMG; [1]): 5.51
pIC50 (Du145; read-out: IC50, Du145): 5.66
pIC50 (MCF7; read-out: IC50, MCF7): 5.17
pIC50 (NCI-H460; read-out: IC50, NCI-H460): 5.49

L-rhamnoside [16β]
pIC50 (A549; read-out: IC50, A549): 6.15
pIC50 (Hep3B; read-out: IC50, Hep 3B): 6.27
pIC50 (SF-268; read-out: IC50, SF-268): 5.48
pIC50 (NCI/ADR-RES; read-out: IC50, NCI/ADR-RES): 6.46
pIC50 (SK-OV-3; read-out: IC50, SK-OV-3): 5.40
pIC50 (HCT-116; read-out: IC50, HCT-116): 6.05
pIC50 (NmuMG; [1]): < 4.60
pIC50 (Du145; read-out: IC50, Du145): 6.77
pIC50 (MCF7; read-out: IC50, MCF7): 5.74
pIC50 (NCI-H460; read-out: IC50, NCI-H460): 6.48

CON(C1CCC2(C)C(CCC3C2CCC2(C)C(C4=CC(=O)OC4)CCC32O)C1)C1OC(C)C(O)C(O)C1O [7α, L-fucoside]
pIC50 (A549; read-out: IC50, A549): < 4.60
pIC50 (Hep3B; read-out: IC50, Hep 3B): < 4.60
pIC50 (SF-268; read-out: IC50, SF-268): < 4.60
pIC50 (NCI/ADR-RES; read-out: IC50, NCI/ADR-RES): < 4.60
pIC50 (SK-OV-3; read-out: IC50, SK-OV-3): < 4.60
pIC50 (HCT-116; read-out: IC50, HCT-116): < 4.60
pIC50 (NmuMG; [1]): < 4.60
pIC50 (Du145; read-out: IC50, Du145): < 4.60
pIC50 (MCF7; read-out: IC50, MCF7): < 4.60
pIC50 (NCI-H460; read-out: IC50, NCI-H460): < 4.60

CON(C1CCC2(C)C(CCC3C2CCC2(C)C(C4=CC(=O)OC4)CCC32O)C1)C1OC(CO)C(O)C(O)C1O [28α, L-idoside]
pIC50 (A549; read-out: IC50, A549): < 4.60
pIC50 (Hep3B; read-out: IC50, Hep 3B): < 4.60
pIC50 (SF-268; read-out: IC50, SF-268): < 4.60
pIC50 (NCI/ADR-RES; read-out: IC50, NCI/ADR-RES): < 4.60
pIC50 (SK-OV-3; read-out: IC50, SK-OV-3): < 4.60
pIC50 (HCT-116; read-out: IC50, HCT-116): < 4.60
pIC50 (NmuMG; [2]): < 4.60
pIC50 (Du145; read-out: IC50, Du145): < 4.60
pIC50 (MCF7; read-out: IC50, MCF7): < 4.60
pIC50 (NCI-H460; read-out: IC50, NCI-H460): < 4.60

D-arabinoside [33α]
pIC50 (A549; read-out: IC50): < 4.60
pIC50 (Hep3B; read-out: IC50): < 4.60
pIC50 (SF-268; read-out: IC50): < 4.60
pIC50 (NCI/ADR-RES; read-out: IC50): < 4.60
pIC50 (SK-OV-3; read-out: IC50): < 4.60
pIC50 (HCT-116; read-out: IC50): < 4.60
pIC50 (NmuMG; [2]): < 4.60
pIC50 (Du145; read-out: IC50): < 4.60
pIC50 (MCF7; read-out: IC50): < 4.60
pIC50 (NCI-H460; read-out: IC50): < 4.60

CON([C@H]1CC[C@@]2(C)[C@H](CC[C@@H]3[C@@H]2CC[C@]2(C)[C@@H](C4=CC(=O)OC4)CC[C@]32O)C1)[C@@H]1OC[C@@H](O)[C@H](O)[C@H]1O [24β, D-xyloside]
pIC50 (A549; read-out: IC50, A549): 5.96
pIC50 (Hep3B; read-out: IC50, Hep 3B): 5.92
pIC50 (SF-268; read-out: IC50, SF-268): 5.68
pIC50 (NCI/ADR-RES; read-out: IC50, NCI/ADR-RES): 6.27
pIC50 (SK-OV-3; read-out: IC50, SK-OV-3): 5.74
pIC50 (HCT-116; read-out: IC50, HCT-116): 5.74
pIC50 (NmuMG; [1]): 6.05
pIC50 (Du145; read-out: IC50, Du145): 6.09
pIC50 (MCF7; read-out: IC50, MCF7): 5.74
pIC50 (NCI-H460; read-out: IC50, NCI-H460): 5.74

CON(C1CCC2(C)C(CCC3C2CCC2(C)C(C4=CC(=O)OC4)CCC32O)C1)C1OC(CO)C(O)C(O)C1O [20α, D-altroside]
pIC50 (A549; read-out: IC50, A549): < 4.60
pIC50 (Hep3B; read-out: IC50, Hep 3B): < 4.60
pIC50 (SF-268; read-out: IC50, SF-268): < 4.60
pIC50 (NCI/ADR-RES; read-out: IC50, NCI/ADR-RES): < 4.60
pIC50 (SK-OV-3; read-out: IC50, SK-OV-3): < 4.60
pIC50 (HCT-116; read-out: IC50, HCT-116): < 4.60
pIC50 (NmuMG; [1]): < 4.60
pIC50 (Du145; read-out: IC50, Du145): < 4.60
pIC50 (MCF7; read-out: IC50, MCF7): < 4.60
pIC50 (NCI-H460; read-out: IC50, NCI-H460): < 4.60

CON(C1CCC2(C)C(CCC3C2CCC2(C)C(C4=CC(=O)OC4)CCC32O)C1)C1OC(CO)C(O)C(O)C1O [18α, D-alloside]
pIC50 (A549; read-out: IC50, A549): < 4.60
pIC50 (Hep3B; read-out: IC50, Hep 3B): < 4.60
pIC50 (SF-268; read-out: IC50, SF-268): < 4.60
pIC50 (NCI/ADR-RES; read-out: IC50, NCI/ADR-RES): < 4.60
pIC50 (SK-OV-3; read-out: IC50, SK-OV-3): < 4.60
pIC50 (HCT-116; read-out: IC50, HCT-116): < 4.60
pIC50 (NmuMG; [1]): < 4.60
pIC50 (Du145; read-out: IC50, Du145): < 4.60
pIC50 (MCF7; read-out: IC50, MCF7): < 4.60
pIC50 (NCI-H460; read-out: IC50, NCI-H460): < 4.60

CON([C@H]1CC[C@@]2(C)[C@H](CC[C@@H]3[C@@H]2CC[C@]2(C)[C@@H](C4=CC(=O)OC4)CC[C@]32O)C1)[C@@H]1O[C@H](CO)[C@@H](O)C[C@H]1O [10β, 3-deoxy-D-glucoside]
pIC50 (A549; read-out: IC50, A549): 5.80
pIC50 (Hep3B; read-out: IC50, Hep 3B): 5.77
pIC50 (SF-268; read-out: IC50, SF-268): 6.11
pIC50 (NCI/ADR-RES; read-out: IC50, NCI/ADR-RES): 6.36
pIC50 (SK-OV-3; read-out: IC50, SK-OV-3): 5.60
pIC50 (HCT-116; read-out: IC50, HCT-116): 5.74
pIC50 (NmuMG; [1]): 6.03
pIC50 (Du145; read-out: IC50, Du145): 6.10
pIC50 (MCF7; read-out: IC50, MCF7): 6.34
pIC50 (NCI-H460; read-out: IC50, NCI-H460): 5.80
